Experimental data as given in article PMC13434769 (2026).
One block for each compound: values may come before it.

What was measured:
[1] = test system: G12 (RNA, aptamer) GGGCAACUCCAAGCUAGAUCUACCGGUAAUUUAGGUCAUUGAGUGAACAGACGUCAAGCUAGUUGGGCUACUGGCUUCUAAAACACAGGUAAAAUG; assay: fluorescence titration (intrinsic fluorescence); details: K+ (20 mM KPO4), 100 mM NaCl, 10 mM MgCl2, pH 7.5
[2] = test system: tetracycline aptamer (SMFS construct) (RNA, aptamer) GGCAGGGCUGACGUAGUUGGAGUGGUGCGGGAGGAUAUAGUAAUCUGCAAAACAUACCAGAUGAAAAUCUGGAGAGGUGAAGAAUACGACCACCUGCAGAUUACUAUAUAGUGAGGGCAGAAUUCAGGUG; assay: optical tweezers force ramp; details: 250 mM KCl, 20 mM NaCl, 5 mM MgCl2; 40 mM HEPES pH 7.4, ~25 °C; P1 unfolding force increased
[3] = test system: G12 (RNA, aptamer) GGGCAACUCCAAGCUAGAUCUACCGGUAAUUUAGGUCAUUGAGUGAACAGACGUCAAGCUAGUUGGGCUACUGGCUUCUAAAACACAGGUAAAAUG; assay: fluorescence titration, Hill fit (ex 375 nm, em 530 nm); details: 20 °C; 10 nM doxycycline
[4] = test system: G12 no stem (SMFS construct) (RNA, aptamer) GGCAGGGCUGACGUAGUUGGAGUGGUGCGGGAGGGUCAUUGAGUGAACAGACGUCAAGCUAGUUGGGCUACUGGCUUAGUGAGGGCAGAAUUCAGGUG; assay: optical tweezers passive mode, koff/kon; details: 250 mM KCl, 20 mM NaCl, 5 mM MgCl2; 40 mM HEPES pH 7.4, ~25 °C; extrapolated to zero force; koff 6.0 s-1
[5] = test system: G12 short stem (SMFS construct) (RNA, aptamer) GGCAGGGCUGACGUAGUUGGAGUGGUGCGGGAGGCCGUGGUCAUUGAGUGAACAGACGUCAAGCUAGUUGGGCUACUGGCUUCACGGAGUGAGGGCAGAAUUCAGGUG; assay: optical tweezers force-jump, koff/kon; details: 250 mM KCl, 20 mM NaCl, 5 mM MgCl2; 40 mM HEPES pH 7.4, ~25 °C; near-zero force; koff 0.0055 s-1, kon 0.42 s-1 µM-1
[6] = test system: G12 long stem (SMFS construct) (RNA, aptamer) GGCAGGGCUGACGUAGUUGGAGUGGUGCGGGAGGGGAGUAAUCUCGGUCAUUGAGUGAACAGACGUCAAGCUAGUUGGGCUACUGGCUUCGAGAUUACUCCAGUGAGGGCAGAAUUCAGGUG; assay: optical tweezers force ramp; details: 250 mM KCl, 20 mM NaCl, 5 mM MgCl2; 40 mM HEPES pH 7.4, ~25 °C; intermediate I1 stabilised as in short stem

binding ([1]; 1 nM tetracycline): no
binding [2]: yes
SMILES: CN(C)[C@@H]1C(=O)C(C(N)=O)=C(O)[C@@]2(O)C(=O)C3=C(O)c4c(O)cccc4[C@@](C)(O)[C@H]3C[C@@H]12

binding ([1]; 5 nM 7-chloro-tetracycline): no
SMILES: CN(C)[C@@H]1C(O)=C(C(N)=O)C(=O)[C@@]2(O)C(O)=C3C(=O)c4c(O)ccc(Cl)c4[C@@](C)(O)[C@H]3C[C@@H]12

KD [3]: 2.8 nM
KD,0 [4]: 3800 nM
KD,0 [5]: 13.1 nM
binding [6]: yes
SMILES: C[C@H]1c2cccc(O)c2C(=O)C2=C(O)[C@]3(O)C(=O)C(C(N)=O)=C(O)[C@@H](N(C)C)[C@@H]3[C@@H](O)[C@@H]21

binding ([1]; 20 nM minocycline): no
SMILES: CN(C)c1ccc(O)c2c1C[C@H]1C[C@H]3[C@H](N(C)C)C(O)=C(C(N)=O)C(=O)[C@@]3(O)C(O)=C1C2=O

binding ([1]; 5 nM sancycline): no
SMILES: CN(C)[C@@H]1C(O)=C(C(N)=O)C(=O)[C@@]2(O)C(O)=C3C(=O)c4c(O)cccc4C[C@H]3C[C@@H]12

binding ([1]; 20 nM anhydrotetracycline): no
SMILES: Cc1c2c(c(O)c3c(O)cccc13)C(=O)[C@]1(O)C(O)=C(C(N)=O)C(=O)[C@@H](N(C)C)[C@@H]1C2
